Test results reported in patent publication US20230165252A1, “ACTIVE COMPOUND COMBINATIONS” (Bayer Aktiengesellschaft, priority 2020, published 2023).

Experiments:
[1] = Measurement of Log P values by HPLC on reversed phase columns (EEC directive 79/831 Annex V.A8), methods [a], [b], [c]; assay type: physicochemical; settings: method [a]
Method: Measurement of Log P values as provided herein was performed according to EEC directive 79/831 Annex V.A8 by HPLC (High Performance Liquid Chromatography) on reversed phase columns with the following methods: • ^[a]

Parastagonospora nodorum = test: in vitro-Test with Parastagonospora nodorum (microtiter growth inhibition); assay type: cell-based
Method: (§1) The degree of efficacy expressed in % is denoted: 0% means an efficacy, which corresponds to that of the control, while an efficacy of 100% means that no disease is observed.
(§2) If the actual fungicidal activity exceeds the calculated value, then the activity of the combination is super-additive, i.e. a synergistic effect exists. In this case, the efficacy, which was actually observed, must be greater than the value for the expected efficacy (E), that was calculated from the abovementioned formula.
(§3) Example: In Vitro-Test with Fungal Microorganisms
(§4) Wells of 96-well microtiter plates are filled with 10 μl of a preparation of test compound or compound combination in methanol+emulsifier alkylaryl-polyglycol-ether. Thereafter, the solvent is evaporated in a hood. At the next step, 100 μl of liquid potato dextrose medium is given into each well, that has been amended with an appropriate concentration of spores or mycelium suspension of the test fungus.
(§5) With the aid of a photometer, the extinction in all wells is measured at the wavelength of 620 nm.
(§6) The microtiter plates are incubated at 20° C. and 85% relative humidity. The inhibition of growth is determined again photometrically 3-5 days after the application. Efficacy is calculated in relation to the untreated control, 0% efficacy means fungal growth as high as in untreated control while 100% efficacy means no fungal growth is measured.

Alternaria alternate = test: in vitro-Test with Alternaria alternate (microtiter growth inhibition); assay type: cell-based; settings: alone
Method: as §1, §2, §3, §4, §5, §6

| Compound | LogP [1] | other results |
| --- | --- | --- |
| O=C(NCCc1ccc(-c2ccncc2)cc1)c1cc(Cl)nnc1Oc1cccc(C(F)(F)F)c1 [I-542] | 2.13^[a] | – |
| Cc1cc(C(=O)NCCc2cccc3oc(C)nc23)c(Oc2cccc(C(F)(F)F)c2)nn1 [I-543] | 2.96^[a] | – |
| O=C(NCCc1ccc2c(c1)CCO2)c1cc(Cl)nnc1Oc1cccc(C(F)(F)F)c1 [I-551] | 3.65^[a] | – |
| O=C(NCc1cccc2cnccc12)c1cc(Cl)nnc1Oc1cccc(C(F)(F)F)c1 [I-559] | 2.14^[a] | – |
| CCc1cccc(Oc2nnc(Cl)cc2C(=O)NCC(F)(F)c2ccc(C)cc2C)c1 [I-570] | 4.68^[a] | – |
| O=C(NCCc1ccc2c(c1)OCCO2)c1cc(Cl)nnc1Oc1cccc(C(F)(F)F)c1 [I-573] | 3.53^[a] | – |
| C#Cc1cc(C(=O)NCC(F)(F)c2ccc(C)cc2C)c(Oc2cccc(C(F)(F)F)c2)nn1 [I-577] | 4.31^[a] | – |
| O=C(NCC(F)(F)c1ccc(Cl)cc1Cl)c1cc(Cl)nnc1Oc1cccc(C2CC2)c1F [I-598] | 4.71^[a] | – |
| Cc1ccc(C2(CNC(=O)c3cc(Cl)nnc3Oc3cccc(C(F)(F)F)c3)CC2)cc1 [I-601] | 4.58^[a] | – |
| O=C(NCC(F)(F)Oc1ccc(C(F)(F)F)cc1Cl)c1cc(Cl)nnc1Oc1cccc(C(F)(F)F)c1 [I-633] | 4.58^[a] | – |
| O=C(NCCc1ncc(Cl)cn1)c1cc(Cl)nnc1Oc1cccc(C(F)(F)F)c1 [I-635] | 3.05^[a] | – |
| COCCc1c(C2CC2)nnc(Oc2cccc(C(F)(F)F)c2)c1C(=O)NCC(F)(F)c1ccc(C)cc1C [I-636] | 4.57^[a] | – |
| Cc1c(C2CC2)nnc(Oc2cccc(C(F)(F)F)c2)c1C(=O)NCC(F)(F)c1ccc(Cl)cc1Cl [I-642] | 4.43^[a] | – |
| Cc1ccc(C(F)(F)CNC(=O)c2c(Oc3cccc(C(F)(F)F)c3)nnc(C3CC3)c2NC2CC2)c(C)c1 [I-650] | 4.10^[a] | – |
| Cc1ccc(C(F)(F)CNC(=O)c2cc(CCC#N)nnc2Oc2cccc(C(F)(F)F)c2)c(C)c1 [I-662] | 3.78^[a] | – |
| C=CCOc1c(Cl)nnc(Oc2cccc(C(F)(F)F)c2)c1C(=O)NCC(F)(F)c1ccc(C)cc1C [I-684] | 4.87^[a] | – |
| Cc1cnn(CCNC(=O)c2cc(C)nnc2Oc2cccc(C(F)(F)F)c2)c1 [I-691] | 2.58^[a] | – |
| CON(CCc1ccc(Cl)cc1Cl)C(=O)c1c(Oc2cccc(C3CC3)c2F)nnc(Cl)c1C [I-739] | 5.36^[a] | – |
| CNc1c(Cl)nnc(Oc2cccc(C3CC3)c2F)c1C(=O)NCCc1ccc(Cl)cc1Cl [I-757] | 4.09^[a] | – |
| Cc1ccc(C(F)(F)CNC(=O)c2cc(Cl)nnc2Oc2ccc3[nH]ccc3c2)c(C)c1 [I-769] | 3.78^[a] | – |
| C=C(C)OC(=O)N(CC(F)(F)c1ccc(C)cc1C)C(=O)c1cc(Cl)nnc1Oc1cccc(C(F)(F)F)c1 [I-785] | 5.51^[a] | – |
| COCCc1cc(C(=O)NCC(F)(F)c2ccc(C)cc2C)c(Oc2cccc(C(F)(F)F)c2)nn1 [I-796] | 4.00^[a] | – |
| Cc1ccc(C(F)(F)CNC(=O)c2cc(Cc3ccccc3)nnc2Oc2cccc(C(F)(F)F)c2)c(C)c1 [I-797] | 4.95^[a] | – |
| Cc1ccc(C(F)(F)CNC(=O)c2cc(CC3CCC3)nnc2Oc2cccc(C(F)(F)F)c2)c(C)c1 [I-798] | 5.02^[a] | – |
| Cc1ccc(C(F)(F)CNC(=O)c2c(Oc3cccc(C(F)(F)F)c3)nnc(Cl)c2NCCC2CC2)c(C)c1 [I-809] | 4.95^[a] | – |
| O=C(NCC(F)(F)c1cc(Cl)sc1Cl)c1cc(Cl)nnc1Oc1cccc(C(F)(F)F)c1 [I-825] | – | LogP ([1]; HPLC on reversed phase column): 4.73^[a] |
| Cn1cc(C(=O)Nc2ccc(F)cc2-c2ccc(Cl)c(Cl)c2)c(C(F)F)n1 [bixafen] | – | Efficacy (Parastagonospora nodorum; 0.2 ppm): 34%; Efficacy (Parastagonospora nodorum; 1.0 ppm): 41%; Efficacy % (Alternaria alternate; 0.04 ppm): 79%; Efficacy % (Alternaria alternate; 0.2 ppm): 81%; Efficacy % (Alternaria alternate; 1.0 ppm): 86% |
